Assay results published in US7615574B2, “Synergistic composition for treating leukemia” (Council of Scientific and Industrial Research, priority 2002, dated 2009).
Where two headings read alike, the source gives them in different places.

How the values were obtained:
CML patient's PBMC = assay: Incubation of CML patient's PBMC with CA, viable cell count (growth inhibition); type: cell-based, human; conditions: PBMC / leukemic cells of CML patient
Procedure: Whole blood (10 ml each) was drawn from previously diagnosed myeloid leukemic patients, one patient was diagnosed as AML and the other one was diagnosed as CML. Mononuclear cells were separated by Ficoll/hypaque density gradient centrifugation. PBMC (1×10^5-2×10^6/ml) of myeloid leukemia patients were incubated with varied concentrations of CA for 48 hours at 37° C. in 5% CO2. Cells were then washed and counted for viability.

[1] = test system: Molt 4 (T lymphoid Cell line); assay: Growth inhibition of T lymphoid cell line Molt 4 by CA in vitro; type: cell-based; conditions: Homo sapiens, 1 × 10^5 cells per ml per well, read-out: Percentage Inhibition of Cell Growth; for inhibition at 50 µg/mL: CA 50.0 μg/ml; for inhibition at 100 µg/mL: CA 100.0 μg/ml; for inhibition at 200 µg/mL: CA 200.0 μg/ml
Excerpt: Culture of T-Lymphoid cell line Molt-4. This cell line was obtained from American Type culture collection (ATCC), VA, USA and grown in vitro as described for the cell line K562.

[2] = test system: K 562 Erythroleukemia cell line; assay: CA, PCQ and combination: growth inhibition of K562 (2×10^6 cells per ml per well); type: cell-based, human; conditions: for percentage growth inhibition of Erythroleukemia cells: concentration not given
[3] = test system: U937 Promonocyte cell line; assay: CA, PCQ and combination: growth inhibition of U937 (2×10^6 cells per ml per well); type: cell-based, human; conditions: for percentage growth inhibition of promonocyte cells: concentration not given
[4] = test system: CML Patient's Leukemic cells; assay: CA, PCQ and combination: growth inhibition of CML patient's leukemic cells (2×10^6 cells per ml per well); type: cell-based, human; conditions: for percentage growth inhibition of CML's leukemic cells: concentration not given
[5] = test system: CML Patient's Leukemic cells; assay: Analysis of cell cycle progression and apoptosis by Flow cytometry (propidium iodide); type: cell-based, human; conditions: 100.0 μg/ml; two days of culture
Procedure: Analysis of cell cycle progression and apoptosis by Flow cytometry PBMC of a CML patient was cultured in RPMI-1640 medium supplemented with 10% […] fetal bovine serum in the presence or absence of CA (100.0 μg/ml) for 48 hr. at 37° C. in 5% CO2. Cells were fixed with 40% ethanol treated with 500 μg/ml Rnase A, and then with 69 μM propidium iodide for analysis of DNA content by Flow Cytometry as described (Mitra et al., Molecular Medicine, 6:527-541, 2000).

leukemia cells = assay: Biological activity of Piper betel HPLC zones and peaks: destruction of leukemic cells; type: cell-based; conditions: HPLC zones and peaks of Fraction E of Piper betel leaf extract
Excerpt: Collected material was examined for biological activity i.e. destruction of leukemic cells. […] 10 gm of above-mentioned material was loaded on Sephadex LH-20 column and chromatographed with water, water-methanol (1:1) and methanol as eluent. Three different fractions thus obtained from three different solvent systems were separately checked for biological activity. The activity was located only on
Fraction 2 i.e. Methanol-water (1:1) and termed as fraction E. Fraction E was then subjected to HPLC analysis using Intersil ODS-3 analytical column. The column was equilibrated with methanol-water-acetic acid (23:76:1), flow rate was maintained at 1.0 ml per min and peaks were identified at 280 nm. According to the retention time (RE) different peaks could be divided into three zones, ZA, ZB and ZC (FIG. 1). ZA had 4 major peaks whereas ZB had very small to moderate 10 peaks and ZC had two distinct peaks. It was convenient to observe biological activity of three zones AA, ZB and ZC, which were separately tested on leukemia cells for destructive activity.
The Zone ZB contained 10 peaks (1 to 10) of varied sizes. […] For this reason all different peaks were separately monitored for biological activity. […] On searching for activity of these peaks i.e. 1,5,6,7,9 and 10 corresponding to Rt 5.16, 8.34, 9.16, 9.86, 13.94 and 14.68 respectively. […]

Normal individual's PBMC = assay: CA, PCQ and combination: growth inhibition of normal individual's PBMC (2×10^6 cells per ml per well); type: cell-based, human
Excerpt: Preparation of peripheral blood mononuclear cells (PBMC) from normal individuals. Whole blood was collected and mononuclear cells were separated by Ficoll/Hypaque density gradient centrifugation.
The number of cells used was 2×10^6 per ml per well.

With `O=C(/C=C/c1ccc(O)c(O)c1)O[C@@H]1C[C@](O)(C(=O)O)C[C@@H](O)[C@H]1O` (single isomer, unassigned) [CA, Chlorogenic acid] the “destruction of cells (in words)” value (CML patient's PBMC) was “destroyed”, the inhibition at 50 µg/mL ([1]; 24 h, 1 day) was 3.57% and the inhibition at 100 µg/mL ([1]; 24 h, 1 day) was 6.89%. It also gave an inhibition at 200 µg/mL ([1]; 24 h, 1 day) of 13.8%, an inhibition at 50 µg/mL ([1]; 48 h, 2 days) of 6.67% and an inhibition at 100 µg/mL ([1]; 48 h, 2 days) of 14.7%. The inhibition at 200 µg/mL ([1]; 48 h, 2 days) was 46.7%, the inhibition at 100 µg/mL ([1]; 72 h, 3 days) was 18.8% and the “percentage growth inhibition of Erythroleukemia cells” value [2] was “about 30%”. For the same compound, the inhibition at 25 µg/mL ([3]; Homo sapiens, U-937, 24 h, U937, single compound 25.0 μg/ml, 1 day, 2×10^6 cells per ml per well, read-out: % Inhibition of cell growth (After 1 day of incubation)) was at most 16.7%, the “percentage growth inhibition of promonocyte cells” value [3] was “about 25%” and the inhibition at 25 µg/mL ([4]; Homo sapiens, 24 h, CML patient's leukemic cells, single compound 25.0 μg/ml, 1 day, 2×10^6 cells per ml per well, read-out: % Inhibition of cell growth (After 1 day of incubation)) was at most 2.38%. The inhibition at 50 µg/mL ([4]; Homo sapiens, 24 h, CML patient's leukemic cells, single compound 50.0 μg/ml, 1 day, 2×10^6 cells per ml per well, read-out: % Inhibition of cell growth (After 1 day of incubation)) was 4.67%, the “percentage growth inhibition of CML's leukemic cells” value [4] was “about 5%” and the “apoptosis in CML patients Leukemic cells in vitro (cell-cycle analysis)” value [5] was “caused apoptosis”. The “biological activity i.e. destruction of leukemic cells (in words)” value (leukemia cells) was “detectable activity”.

In the case of `O=C(C=Cc1ccc(O)cc1)OC1CC(O)(C(=O)O)CC(O)C1O` (stereo not shown) [PCQ, 3-o-p-Coumaryl quinic acid], the “% Inhibition of cell growth (After 1 day of incubation)” value (shortened to “% Inhibition of cell growth”) ([2]; K 562, single compound 50.0 μg/ml, 1 day, 2×10^6 cells per ml per well) is reported as 8.00%, the “percentage growth inhibition of Erythroleukemia cells” value [2] is reported as “about 8%” and the “% Inhibition of cell growth” value ([3]; U937, single compound 50.0 μg/ml, 1 day, 2×10^6 cells per ml per well) is reported as 4.17%. The “percentage growth inhibition of promonocyte cells” value [3] was “about 5%”, the “% Inhibition of cell growth” value ([4]; CML patient's leukemic cells, single compound 50.0 μg/ml, 1 day, 2×10^6 cells per ml per well) was 4.67% and the “percentage growth inhibition of CML's leukemic cells” value [4] was “about 5%”. The “% Inhibition of cell growth” value (Normal individual's PBMC; single compound 25.0 μg/ml) was 0.00%, the “% Inhibition of cell growth” value (Normal individual's PBMC; single compound 50.0 μg/ml) was 1.67% and the “biological activity i.e. destruction of leukemic cells (in words)” value (leukemia cells) was “demonstrated considerable activity”.
